# Measured values published in PubChem BioAssay AID2060494 (Molecular Pharmacology Branch, DTP, NCI, 2025).
# Several values for one entry are separate records, joined by “and”; a condition that tells them apart may be missing. Equal values may be shown once.
# System: 435261-313-R-J1-PDC complex spheroid viability
# Assay: Anticancer human tumor 435261-313-R-J1-PDC patient-derived colon adenocarcinoma cell line growth inhibition [GQUAD]
# Conditions: for viability, T/C: stronger effect = lower value
# Description: DNA G-quadruplex Stabilizer Agents in Combinations in Complex Spheroids
# A high-throughput screen of multi-cell type tumor spheroids was designed to identify active combinations of DNA G-quadruplex stabilizer agents and targeted small molecules. Complex spheroids include a stromal component modeled by human endothelial cells (HUVEC) and fibroblasts modeled by human mesenchymal stem cells (MSCs). The concentration ranges selected for each drug and investigational agent were based upon clinically achievable concentrations if the clinical Cmax of the agent was known.
# Compounds. The drugs and investigational agents: pidnarulex (CX-5461; NSC782164), APTO-253 (NSC789042), BRACO-19 (NSC847499), peposertib (NSC802822), ceralasertib (NSC780249), elimusertib (NSC800525), camonsertib (NSC841442), AZD-1390 (NSC803789), olaparib (NSC753686), talazoparib (NSC767125), ART-558 (NSC835418), sotorasib (NSC818433), MRTX-1133 (NSC836407), SN-38 (NSC673596), topotecan (NSC609699), etoposide (NSC141540), doxorubicin (NSC123127), gemcitabine (NSC613327), 5-fluorouracil (NSC19893), paclitaxel (NSC125973), vemurafenib (NSC761431), panobinostat (NSC761190), R-306465 (JNJ-16241199; NSC773264), adavosertib (NSC754352), TP-3654 (NSC805149), carboplatin (NSC241240), KSQ-4279 (NSC840948), and staurosporine (NSC755774) were obtained from the National Cancer Institute (NCI) Developmental Therapeutics Program Chemical Repository (34). The FDA-approved anticancer drug set is available from the NCI Developmental Therapeutics Program. […] The stock solutions were prepared in dimethyl sulfoxide (DMSO, Sigma-Aldrich, St. Louis, MO, cat. D2650) at 800-fold the tested concentration and stored at -70 degrees C prior to their use. All drugs and investigational agents were tested over a range starting from a high concentration at or near the clinical Cmax and decreasing in half-log increments. If the clinical Cmax for an agent had not been determined, the highest concentration tested was 10 microM.
# 2.3 Cell Culture. All cells were maintained in an incubator at 37 degrees C and 5% CO2 with 95% humidity. The PDC lines were cultured according to standard operating procedures established by the NCI PDMR. All PDCs were thawed and cultured in Matrigel-coated flasks prepared with a working solution of 1X Ham's F-12 nutrient mix, without supplementation (Invitrogen, cat. 11765054), 100 U/mL penicillin-streptomycin (Invitrogen, cat. 15140122), and 2.5% Matrigel (Corning Inc., cat. 354248) for the first three passages. The 857933-349-R-J2-PDC line was cultured in 6C/Colon 1B media, which includes advanced DMEM/F-12 (Thermo Fisher Scientific, cat. 12634028), 10 mM HEPES (Thermo Fisher Scientific, cat. 15630080), 1X GlutaMAX supplement (Thermo Fisher Scientific, cat. 35050061), 0.1 mg/mL primocin (InvivoGen, cat. ant-pm-2), 10% defined fetal bovine serum, heat inactivated (HyClone Laboratories Inc., cat. SH30070.03HI), 50% L-WRN conditioned media (ATCC, cat. CRL-3276), 1.25 mM N-Acetyl-L-cysteine (Sigma-Aldrich, cat. A9165), 10 mM nicotinamide (Sigma-Aldrich, cat. N0636), 1X B-27 supplement (Thermo Fisher Scientific, cat. 17504044), 1X N-2 supplement (Thermo Fisher Scientific, cat. 17502048), 10 microM Y-27632 dihydrochloride (Tocris Bioscience, cat. 1254), and 50 ng/mL human EGF recombinant protein (Thermo Fisher Scientific, cat. PHG0311). The 485176-168-R4-J1-PDC line was cultured in Panc media, which includes all 6C/Colon 1B media components plus 100 ng/mL human FGF-10 (Thermo Fisher Scientific, cat. 100-26), 500 nM SB-431542 (Selleckchem, cat. S1067), and gastrin (Tocris, cat. 3006).
# […]
# 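Note: spheroids exposed to the agents for seven days before readout.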
# 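Throughout, for viability, T/C: percent of vehicle control viability with DMSO wells as 100%.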
smiles,measurement,setting,value
Cn1ncnc1[C@H]1c2n[nH]c(=O)c3cc(F)cc(c23)N[C@@H]1c1ccc(F)cc1,"viability, T/C",compound 0.000999 µM,129% and 93.2% and 109%
same,"viability, T/C",compound 0.00316 µM,91% and 87% and 106%
same,"viability, T/C",compound 0.00999 µM,114% and 98% and 124%
same,"viability, T/C",compound 0.0316 µM,71.5% and 116% and 74.2%
same,"viability, T/C",compound 0.0999 µM,101% and 65.9% and 81.1%
same,"viability, T/C",compound 0.316 µM,81.1% and 72% and 81.4%
same,IC50,curve of compound,> 0.316 µM
CC[C@@]1(O)C(=O)OCc2c1cc1n(c2=O)Cc2cc3c(CN(C)C)c(O)ccc3nc2-1,"viability, T/C",compound 0.000999 µM,126% and 101% and 118%
same,"viability, T/C",compound 0.00316 µM,61.6% and 94.8% and 94.1%
same,"viability, T/C",compound 0.00999 µM,96.5% and 98.2% and 110%
same,"viability, T/C",compound 0.0316 µM,85.8% and 74.4% and 89.1%
same,"viability, T/C",compound 0.0999 µM,75.2% and 72.1% and 83.8%
same,"viability, T/C",compound 0.316 µM,59% and 68.4% and 67.3%
same,IC50,curve of compound,> 0.316 µM
CC(C)n1c(=O)n(C)c2cnc3cc(F)c(-c4ccc(OCCCN5CCCCC5)nc4)cc3c21 + Cc1cnc(CNC(=O)c2c(=O)c3ccc(N4CCCN(C)CC4)nc3n3c2sc2ccccc23)cn1,IC50,"curve of first compound, second compound 0.0316 µM",3.96 µM
same,IC50,"curve of first compound, second compound 0.1 µM",4.64 µM
same,IC50,"curve of first compound, second compound 0.316 µM",1.08 µM
same,IC50,"curve of first compound, second compound 1 µM",< 0.0316 µM
same,IC50,"curve of first compound, second compound 3.16 µM",< 0.0316 µM
same,IC50,"curve of first compound, second compound 10 µM",< 0.0316 µM
same,"viability, T/C","second compound 0.0316 µM, first compound 0.0316 µM",81.5%
same,"viability, T/C","second compound 0.0316 µM, first compound 0.1 µM",68%
same,"viability, T/C","second compound 0.0316 µM, first compound 0.316 µM",74.5%
same,"viability, T/C","second compound 0.0316 µM, first compound 1 µM",56.7%
same,"viability, T/C","second compound 0.0316 µM, first compound 3.16 µM",61.4%
same,"viability, T/C","second compound 0.0316 µM, first compound 10 µM",32.5%
same,"viability, T/C","second compound 0.1 µM, first compound 0.0316 µM",61%
same,"viability, T/C","second compound 0.1 µM, first compound 0.1 µM",61.6%
same,"viability, T/C","second compound 0.1 µM, first compound 0.316 µM",63.3%
same,"viability, T/C","second compound 0.1 µM, first compound 1 µM",57.8%
same,"viability, T/C","second compound 0.1 µM, first compound 3.16 µM",60.9%
same,"viability, T/C","second compound 0.1 µM, first compound 10 µM",28.6%
same,"viability, T/C","second compound 0.316 µM, first compound 0.0316 µM",50.7%
same,"viability, T/C","second compound 0.316 µM, first compound 0.1 µM",64.7%
same,"viability, T/C","second compound 0.316 µM, first compound 0.316 µM",52.8%
same,"viability, T/C","second compound 0.316 µM, first compound 1 µM",49.3%
same,"viability, T/C","second compound 0.316 µM, first compound 3.16 µM",42.9%
same,"viability, T/C","second compound 0.316 µM, first compound 10 µM",30.9%
same,"viability, T/C","second compound 1 µM, first compound 0.0316 µM",42.4%
same,"viability, T/C","second compound 1 µM, first compound 0.1 µM",45.1%
same,"viability, T/C","second compound 1 µM, first compound 0.316 µM",45.7%
same,"viability, T/C","second compound 1 µM, first compound 1 µM",48.1%
same,"viability, T/C","second compound 1 µM, first compound 3.16 µM",26.1%
same,"viability, T/C","second compound 1 µM, first compound 10 µM",5.54%
same,"viability, T/C","second compound 3.16 µM, first compound 0.0316 µM",14.6%
same,"viability, T/C","second compound 3.16 µM, first compound 0.1 µM",8.86%
same,"viability, T/C","second compound 3.16 µM, first compound 0.316 µM",7.48%
same,"viability, T/C","second compound 3.16 µM, first compound 1 µM",16.6%
same,"viability, T/C","second compound 3.16 µM, first compound 3.16 µM",5.15%
same,"viability, T/C","second compound 3.16 µM, first compound 10 µM",0.23%
same,"viability, T/C","second compound 10 µM, first compound 0.0316 µM",0.18%
same,"viability, T/C","second compound 10 µM, first compound 0.1 µM",0.2%
same,"viability, T/C","second compound 10 µM, first compound 0.316 µM",0.2%
same,"viability, T/C","second compound 10 µM, first compound 1 µM",0.18%
same,"viability, T/C","second compound 10 µM, first compound 3.16 µM",0.29%
same,"viability, T/C","second compound 10 µM, first compound 10 µM",0.16%
CC(C)n1c(=O)n(C)c2cnc3cc(F)c(-c4ccc(OCCCN5CCCCC5)nc4)cc3c21,"viability, T/C",compound 0.0316 µM,94.4% and 102%
same,"viability, T/C",compound 0.1 µM,88% and 71.4%
same,"viability, T/C",compound 0.316 µM,109% and 113%
same,"viability, T/C",compound 1 µM,81.4% and 57.3%
same,"viability, T/C",compound 3.16 µM,65.6% and 84.4%
same,"viability, T/C",compound 10 µM,37.7% and 38.4%
same,IC50,curve of compound,5.9 µM and 7.09 µM
